According to article PMC7079008, “Compactness of Protein Folds Alters Disulfide‐Bond Reducibility by Three Orders of Magnitude: A Comprehensive Kinetic Case Study on the Reduction of Differently Sized Tryptophan Cage Model Proteins” (Chembiochem, 2019):
Where a SMILES comes first, the peptide text is derived from it. Bridges are numbered along the chain shown (N, C = ends).

Experiment: Complete redox cycle after DTT reduction: reoxidation by dissolved O2 and precipitation, 1H NMR
Format: physicochemical
Conditions: twofold excess of DTT, pH 7, 15 °C, sealed NMR tube
Protocol: Incomplete conversion, despite the presence of a large excess of the RA, provided evidence for the reoxidation of the reduced SS bond of the studied model systems. To study this process in detail, the in situ reoxidation of the DTT‐reduced protein samples at […] in sealed NMR tubes (pH 7, 15 °C, twofold excess of DTT) was monitored for several weeks.
Figure 8 The 50‐membered structure ensembles of A) E11_SS⇄E11_2SH and B) E5_SS⇄E5_2SH. The fold of E11_2SH is more compact than that of E5_2SH, which has more “open” conformers, in which the Cys residues are far from each other. This allows intermolecular, rather than intramolecular, reoxidation. The dissolved oxidized and reduced protein concentrations of C) E11_SS⇄E11_2 SH and D) E5_SS⇄E5_2SH (oxidized: blue; reduced: green) as a function of time. […] E) Estimated parameters of the complete redox cycles. […] Figure S11 contains all data for parameter estimation of E11_SS, E5_SS, and E2_SS. […]
Reoxidation can take place both intra‐ and intermolecularly. […] According to our semiquantitative analysis based on the recorded ^1H NMR spectra, the integral changes of the Trp Hϵ1 resonances both in the oxidized and reduced forms of the protein during reduction with DTT show a decrease in concentration over the observed period of redox time for both E2_SS and E5_SS. […]

decrease of the initial dissolved protein concentration at the end of a complete redox cycle | SMILES
remained the same | CC[C@H](C)[C@@H]1NC(=O)[C@H](Cc2ccc(O)cc2)NC(=O)[C@H](CC(C)C)NC(=O)[C@H](CCCNC(=N)N)NC(=O)[C@H](C(C)C)NC(=O)[C@@H](NC(=O)[C@H](CCC(=O)O)NC(=O)[C@H](CCC(=O)O)NC(=O)[C@H](CCC(=O)O)NC(=O)[C@H](CCSC)NC(=O)[C@H](CCC(N)=O)NC(=O)[C@H](CCCCN)NC(=O)[C@H](CO)NC(=O)[C@H](CC(C)C)NC(=O)[C@@H](N)CC(=O)O)CSSC[C@@H](C(=O)O)NC(=O)[C@@H]2CCCN2C(=O)[C@@H]2CCCN2C(=O)[C@@H]2CCCN2C(=O)[C@H](CCCNC(=N)N)NC(=O)CNC(=O)[C@H](CO)NC(=O)[C@H](CO)NC(=O)[C@@H]2CCCN2C(=O)CNC(=O)CNC(=O)[C@H](CC(=O)O)NC(=O)[C@H](CCCCN)NC(=O)[C@H](CC(C)C)NC(=O)[C@H](Cc2c[nH]c3ccccc23)NC(=O)[C@H](CCC(N)=O)NC1=O [E11_SS] (H-DLSKQMEEECVRLYIQWLKDGGPSSGRPPPC-OH; disulfide 10-31)
68% | CC[C@H](C)[C@@H]1NC(=O)[C@H](Cc2ccc(O)cc2)NC(=O)[C@H](CC(C)C)NC(=O)[C@H](CCCNC(=N)N)NC(=O)[C@H](C(C)C)NC(=O)[C@@H](NC(=O)[C@H](CCC(=O)O)NC(=O)[C@H](CCC(=O)O)NC(=O)[C@@H](N)CCC(=O)O)CSSC[C@@H](C(=O)O)NC(=O)[C@@H]2CCCN2C(=O)[C@@H]2CCCN2C(=O)[C@@H]2CCCN2C(=O)[C@H](CCCNC(=N)N)NC(=O)CNC(=O)[C@H](CO)NC(=O)[C@H](CO)NC(=O)[C@@H]2CCCN2C(=O)CNC(=O)CNC(=O)[C@H](CC(=O)O)NC(=O)[C@H](CCCCN)NC(=O)[C@H](CC(C)C)NC(=O)[C@H](Cc2c[nH]c3ccccc23)NC(=O)[C@H](CCC(N)=O)NC1=O [E5_SS] (H-EEECVRLYIQWLKDGGPSSGRPPPC-OH; disulfide 4-25)
